ChEMBL document CHEMBL5316284, “Structural Determinants of Indole-2-carboxamides: Identification of Lead Acetamides with Pan Antimycobacterial Activity” (J Med Chem, 2023)
Values after ≈ are worked out from the molar mass of the structure shown.

Experiments:
[1] = test system: Mycobacterium tuberculosis; test: Antimycobacterial activity against Mycobacterium tuberculosis H37Rv mc2 6206 assessed as inhibition of bacterial growth measured after 7 days by visual analysis; assay type: functional; conditions: H37Rv mc2 6206, 168 h, time 7 day
[2] = test system: Mycobacteroides abscessus; test: Antimycobacterial activity against Mycobacterium abscessus […] assessed as inhibition of bacterial growth measured after 5 days by visual analysis; assay type: functional; conditions: 120 h, time 5 day
[3] = Kinetic solubility of compound at pH 7.4 incubated for 6 hrs by LC-MS/MS analysis; assay type: physicochemical; conditions: buffer, read-out: Kinetic_solubility
[4] = Metabolic stability in mouse liver S9 fraction assessed as parent compound remaining at 5 ug/ml after 90 mins in presence of NADPH by LC/MS analysis; assay type: ADME, subcellular; conditions: s9, 1.5 h, dose 5 µg/ml
[5] = Cytotoxicity against human WI26VA4 cells assessed as inhibition of cell growth measured after 72 hrs by MTT assay; assay type: toxicity, cell-based
[6] = Selectivity index, ratio of IC50 for Cytotoxicity against human WI26VA4 cells to MIC for antimycobacterial activity against Mycobacterium tuberculosis H37Rv mc2 6206; assay type: toxicity, cell-based; conditions: read-out: Selectivity Index
[7] = Permeability of the compound by PAMPA method; assay type: ADME
[8] = Metabolic stability in human liver S9 fraction assessed as parent compound remaining at 5 ug/ml after 90 mins in presence of NADPH by LC/MS analysis; assay type: ADME, subcellular; conditions: s9, 1.5 h, dose 5 µg/ml
[9] = Plasma protein binding in human at 10 ug/ml incubated for 4 hrs under shaking condition by LC/MS/MS analysis; assay type: ADME, cell-free; conditions: at 10 µg/mL, read-out: PPB (converted)
[10] = Selectivity index, ratio of IC50 for Cytotoxicity against human WI26VA4 cells to MIC for antimycobacterial activity against Mycobacterium abscessus […]; assay type: toxicity, cell-based; conditions: read-out: Selectivity Index
[11] = test system: Mycobacterium intracellulare subsp. chimaera; test: Antimycobacterial activity against Mycobacterium intracellulare subsp. chimaera 1501948 assessed as inhibition of bacterial growth by visual analysis; assay type: functional
[12] = Antimycobacterial activity against Mycobacterium avium subsp. avium 2585R assessed as inhibition of bacterial growth by visual analysis; assay type: functional
Mycobacterium kansasii = test: Antimycobacterial activity against Mycobacterium kansasii ATCC 1279 assessed as inhibition of bacterial growth by visual analysis; assay type: functional
Mycobacteroides chelonae = test: Antimycobacterial activity against Mycobacteroides chelonae ATCC 35752 assessed as inhibition of bacterial growth by visual analysis; assay type: functional
[13] = test system: Mycolicibacterium fortuitum; test: Antimycobacterial activity against Mycobacterium fortuitum ATCC 6841 assessed as inhibition of bacterial growth by visual analysis; assay type: functional
[14] = test system: Mycobacterium intracellulare; test: Antimycobacterial activity against Mycobacterium intracellulare 1956 assessed as inhibition of bacterial growth by visual analysis; assay type: functional

O=C(CNc1ccccc1)NC1CCCCCC1
MIC [1]: 64 µg/mL (≈ 260 µM) | MIC [2]: > 64 µg/mL

C[C@@H]1[C@H]2C[C@@H](C[C@H]1NC(=O)CNc1ccccc1)C2(C)C
MIC [1]: 64 µg/mL (≈ 223 µM) | MIC [2]: > 64 µg/mL

O=C(CNc1ccc(Cl)cc1)NC1C2CC3CC(C2)CC1C3 (stereo unspecified)
MIC [1]: 64 µg/mL (≈ 201 µM) | MIC [2]: > 64 µg/mL

O=C(CNc1ccc(OC(F)(F)F)cc1)NC1CCCCCCC1
MIC [1]: 32 µg/mL (≈ 92.9 µM) | MIC [2]: 8 µg/mL (≈ 23.2 µM)

O=C(CNc1ccccc1Br)NC12CC3CC(CC(C3)C1)C2
MIC [1]: 8 µg/mL (≈ 22 µM) | MIC [2]: 8 µg/mL (≈ 22 µM)

O=C(CNc1ccc(Br)cc1)NC12CC3CC(CC(C3)C1)C2
solubility kinetic at 6 h [3]: 1.3 µg/mL (≈ 3.58 µM) | t1/2 [4]: 4 h | MIC [1]: 8 µg/mL (≈ 22 µM) | IC50 [5]: > 20 µg/mL | selectivity ratio [6]: > 2.5 | permeability [7]: 0.28 10^-6 cm/s | t1/2 [8]: 2.5 h | fraction unbound at 4 h, 10 ug/ml [9]: 0.004 | selectivity ratio [10]: > 10 | MIC [2]: 2 µg/mL (≈ 5.51 µM)

C[C@@H]1[C@H]2C[C@@H](C[C@H]1NC(=O)CNc1ccc(Cl)cc1)C2(C)C
MIC [1]: 16 µg/mL (≈ 49.9 µM) | MIC [2]: 4 µg/mL (≈ 12.5 µM)

C[C@@H]1[C@H]2C[C@@H](C[C@H]1NC(=O)CNc1ccccc1Cl)C2(C)C
solubility kinetic at 6 h [3]: 14.3 µg/mL (≈ 44.6 µM) | MIC [11]: > 64 µg/mL | MIC [12]: 16 µg/mL (≈ 49.9 µM) | t1/2 [4]: 8.6 h | MIC [1]: 0.25 µg/mL (≈ 0.779 µM) | MIC (Mycobacterium kansasii): 16 µg/mL (≈ 49.9 µM) | IC50 [5]: > 20 µg/mL | selectivity ratio [6]: > 80 | permeability [7]: 0.38 10^-6 cm/s | MIC (Mycobacteroides chelonae): 4 µg/mL (≈ 12.5 µM) | t1/2 [8]: 5.1 h | fraction unbound at 4 h, 10 ug/ml [9]: 0.045 | selectivity ratio [10]: > 20 | MIC [13]: 2 µg/mL (≈ 6.23 µM) | MIC [2]: 1 µg/mL (≈ 3.12 µM) | MIC [14]: 16 µg/mL (≈ 49.9 µM)

Cc1ccc(NCC(=O)N[C@@H]2C[C@@H]3C[C@H]([C@H]2C)C3(C)C)cc1
MIC [1]: 16 µg/mL (≈ 53.3 µM) | MIC [2]: 8 µg/mL (≈ 26.6 µM)

C[C@@H]1[C@H]2C[C@@H](C[C@H]1NC(=O)CNc1cccc(Br)c1)C2(C)C
solubility kinetic at 6 h [3]: 18.6 µg/mL (≈ 50.9 µM) | MIC [11]: 16 µg/mL (≈ 43.8 µM) | MIC [12]: 16 µg/mL (≈ 43.8 µM) | t1/2 [4]: 5.8 h | MIC [1]: 0.5 µg/mL (≈ 1.37 µM) | MIC (Mycobacterium kansasii): 8 µg/mL (≈ 21.9 µM) | IC50 [5]: > 20 µg/mL | selectivity ratio [6]: > 40 | permeability [7]: 1.01 10^-6 cm/s | MIC (Mycobacteroides chelonae): 8 µg/mL (≈ 21.9 µM) | t1/2 [8]: 4.2 h | fraction unbound at 4 h, 10 ug/ml [9]: 0.045 | selectivity ratio [10]: > 20 | MIC [13]: 2 µg/mL (≈ 5.47 µM) | MIC [2]: 1 µg/mL (≈ 2.74 µM) | MIC [14]: 8 µg/mL (≈ 21.9 µM)

O=C(CNc1cccc(Br)c1)NC12CC3CC(CC(C3)C1)C2
solubility kinetic at 6 h [3]: 22.2 µg/mL (≈ 61.1 µM) | MIC [1]: 32 µg/mL (≈ 88.1 µM) | IC50 [5]: > 20 µg/mL | selectivity ratio [6]: > 20 | permeability [7]: 1.02 10^-6 cm/s | t1/2 [8]: 0.5 h | fraction unbound at 4 h, 10 ug/ml [9]: 0.068 | selectivity ratio [10]: > 20 | MIC [2]: 1 µg/mL (≈ 2.75 µM)

COc1ccc(NCC(=O)NC23CC4CC(CC(C4)C2)C3)cc1
MIC [1]: 32 µg/mL (≈ 102 µM) | MIC [2]: 32 µg/mL (≈ 102 µM)

O=C(CNc1ccccc1)NC1C2CC3CC(C2)CC1C3 (stereo unspecified)
MIC [1]: 16 µg/mL (≈ 56.3 µM) | MIC [2]: > 64 µg/mL

O=C(CNc1ccc(C(F)(F)F)cc1)NC1C2CC3CC(C2)CC1C3 (stereo unspecified)
solubility kinetic at 6 h [3]: 23.9 µg/mL (≈ 67.8 µM) | t1/2 [4]: 15.6 h | MIC [1]: 2 µg/mL (≈ 5.68 µM) | IC50 [5]: > 20 µg/mL | selectivity ratio [6]: > 10 | permeability [7]: 0.34 10^-6 cm/s | t1/2 [8]: 5.8 h | fraction unbound at 4 h, 10 ug/ml [9]: 0.057 | selectivity ratio [10]: > 5 | MIC [2]: 4 µg/mL (≈ 11.4 µM)

O=C(CNc1ccc(C(F)(F)F)cc1)NC1CCCCCCC1
MIC [1]: 32 µg/mL (≈ 97.4 µM) | MIC [2]: 64 µg/mL (≈ 195 µM)

O=C(CNc1ccc(Br)cc1)NC1C2CC3CC(C2)CC1C3 (stereo unspecified)
MIC [1]: 4 µg/mL (≈ 11 µM) | MIC [2]: 4 µg/mL (≈ 11 µM)

COc1ccc(NCC(=O)NC2CCCCCCC2)cc1
MIC [1]: 64 µg/mL (≈ 220 µM) | MIC [2]: > 64 µg/mL

Cc1ccc(NCC(=O)NC2C3CC4CC(C3)CC2C4)cc1 (stereo unspecified)
MIC [1]: 4 µg/mL (≈ 13.4 µM) | MIC [2]: 16 µg/mL (≈ 53.6 µM)

O=C(CNc1ccccc1OC(F)(F)F)NC12CC3CC(CC(C3)C1)C2
MIC [1]: 1 µg/mL (≈ 2.71 µM) | MIC [2]: > 64 µg/mL

O=C(CNc1ccccc1)NC12CC3CC(CC(C3)C1)C2
MIC [1]: 32 µg/mL (≈ 113 µM) | MIC [2]: 16 µg/mL (≈ 56.3 µM)
